Laboratory results published in US12310364B2, “Safened compositions comprising pyridine carboxylate herbicides and cloquintocet” (Corteva Agriscience LLC, priority 2018, dated 2025).

Tests used:
Format in all cases: in vivo
[1] = test system: Hordeum vulgare (spring barley), HORVS; test: Greenhouse postemergence safening trial, visual injury on spring barley
Procedure: (§1) Greenhouse Trial Methodology-Evaluation of Postemergence Herbicidal […] in Crops […] When required to ensure good germination and healthy plants, a fungicide treatment and/or other chemical or physical treatment was applied. The plants were grown for 7-36 days (d) in a greenhouse with an approximate 14-hour (h) photoperiod which was maintained at about 23° C. during the day and 22° C. during the night. Nutrients and water were added on a regular basis and supplemental lighting was provided with overhead metal halide 1000-Watt lamps as necessary. The plants were employed for testing when they reached the second or third true leaf stage. Emulsifiable concentrates of each of each pyridine carboxylate herbicide (Compound A or Compound B) were prepared at 100 grams acid equivalent per liter (g ae/L). […] The concentrated stock solutions were further diluted with an aqueous mixture of 1.25% […] or MSO® Concentrate with LECI-TECH® to obtain stock solutions at reduced application rates for each herbicide. Spray solutions of the herbicide combinations (Compound A or Compound B plus safener) were prepared by adding weighed amounts or aliquots of the safener to the stock solutions of Compound A or Compound B to form 12-mL spray solutions in two-way combinations. […] Control plants were sprayed in the same manner with the solvent blank. All herbicide (component a) application rates are given as “g ae/ha” and all safener (component b) application rates are given as “g ai/ha.” The treated plants and control plants were placed in a greenhouse as described above and watered by sub-irrigation to prevent wash-off of the test compounds.

[2] = test system: Brassica napus (winter rape), BRSNW; test: Greenhouse postemergence trial, visual injury on winter rape
Procedure: as §1

[3] = test system: Avena sativa (common oat), AVESA; test: Greenhouse postemergence safening trial, visual injury on common oat; conditions: safener alone 40 g/ha
Procedure: as §1

[4] = test system: Triticum aestivum (spring wheat), TRZAS; test: Greenhouse postemergence safening trial, visual injury on spring wheat
Procedure: as §1

[5] = test system: nutsedge (CYPES, Cyperus esculentus); test: Greenhouse postemergence trial, visual injury on nutsedge; conditions: Table 18
Text: (§2) Greenhouse Trial Methodology—Evaluation of Postemergence Herbicidal Safening in Crops
(§3) Seeds of the desired test plant species were planted in a 90:10% v/v (volume/volume) mixture of PRO-MIX® BX (Premier Tech Horticulture, Quakertown, PA, USA) and PROFILE® GREENS GRADE™ (Profile Products LLC, Buffalo Grove, IL, USA) planting mixture, which typically has a pH of 5.2 to 6.2 and an organic matter content of at least 50 percent, in plastic pots with a surface area of 103.2 square centimeters (cm^2). When required to ensure good germination and healthy plants, a fungicide treatment and/or other chemical or physical treatment was applied. The plants were grown for 7-36 days (d) in a greenhouse with an approximate 14-hour (h) photoperiod which was maintained at about 23° C. during the day and 22° C. during the night. Nutrients and water were added on a regular basis and supplemental lighting was provided with overhead metal halide 1000-Watt lamps as necessary. The plants were employed for testing when they reached the second or third true leaf stage.
(§4) Emulsifiable concentrates of each of each pyridine carboxylate herbicide (Compound A or Compound B) were prepared at 100 grams acid equivalent per liter (g ae/L). An aliquot of each emulsifiable concentrate was placed in a 25 mL glass vial and diluted with an aqueous mixture of 1.25% (v/v) ACTIROB® B esterified rapeseed oil (Bayer Crop Science, Research Triangle Park, NC, USA) or MSO® Concentrate with LECI-TECH® methylated soybean oil (Loveland Products, Loveland, CO, USA) to obtain concentrated stock solutions at the highest application rate for each herbicide, based upon a 12 milliliter (mL) application volume at a rate of 187 liters per hectare (L/ha). The concentrated stock solutions were further diluted with an aqueous mixture of 1.25% v/v ACTIROB® B or MSO® Concentrate with LECI-TECH® to obtain stock solutions at reduced application rates for each herbicide. Spray solutions of the herbicide combinations (Compound A or Compound B plus safener) were prepared by adding weighed amounts or aliquots of the safener to the stock solutions of Compound A or Compound B to form 12-mL spray solutions in two-way combinations.
(§5) The spray solutions were applied to the plant material with an overhead Mandel track sprayer equipped with 8002E nozzles calibrated to deliver 187 L/ha over an application area of 0.503 square meters (m^2) at a spray height of 18 inches (43 centimeters (cm)) above the average plant canopy. Control plants were sprayed in the same manner with the solvent blank. All herbicide (component a) application rates are given as “g ae/ha” and all safener (component b) application rates are given as “g ai/ha.”
(§6) The treated plants and control plants were placed in a greenhouse as described above and watered by sub-irrigation to prevent wash-off of the test compounds. After 20-22 d, the condition of the test plants as compared with that of the control plants was determined visually and scored on a scale of 0 to 100 percent where 0 corresponds to no injury and 100 corresponds to complete kill.

[6] = test system: Anthemis arvensis (field chamomile), ANTAR; test: Greenhouse postemergence trial, visual injury on field chamomile
Text: as §2, §3, §4, §5, §6

[7] = test system: common sunflower (HELAN, Helianthus annuus); test: Greenhouse postemergence trial, visual injury on common sunflower; conditions: Table 18
Text: as §2, §3, §4, §5, §6

[8] = test system: Triticum aestivum (winter wheat), TRZAW; test: Greenhouse postemergence safening trial, visual injury on winter wheat
Procedure: as §1

[9] = test system: Sinapis arvensis (wild mustard), SINAR; test: Greenhouse postemergence trial, visual injury on wild mustard
Text: as §2, §3, §4, §5, §6

[10] = test system: Matricaria inodora (false chamomile), MATIN; test: Greenhouse postemergence trial, visual injury on false chamomile
Text: as §2, §3, §4, §5, §6

[11] = test system: maize (ZEAMX); test: Greenhouse postemergence safening trial, visual injury on maize; conditions: Table 18
Text: as §2, §3, §4, §5, §6

[12] = test system: Triticum aestivum (durum wheat), TRZDU; test: Greenhouse postemergence safening trial, visual injury on durum wheat; conditions: safener alone 40 g/ha
Procedure: as §1

[13] = test system: pigweed (AMARE, Amaranthus retroflexus); test: Greenhouse postemergence trial, visual injury on pigweed; conditions: Table 18
Text: as §2, §3, §4, §5, §6

[14] = test system: Hordeum vulgare (winter barley), HORVW; test: Greenhouse postemergence safening trial, visual injury on winter barley
Procedure: as §1

[15] = test system: Matricaria chamomilla (wild chamomile), MATCH; test: Greenhouse postemergence trial, visual injury on wild chamomile
Procedure: as §1

[16] = test system: Salsola kali (Russian thistle), SASKR; test: Greenhouse postemergence trial, visual injury on Russian thistle
Procedure: as §1

O=C(O)COc1ccc(Cl)c2cccnc12 [CQC-a, cloquintocet-acid]
0%: % visual injury, Ob ([1]; safener alone 5 g/ha) | % visual injury, Ob ([1]; safener alone 10 g/ha) | % visual injury, Ob ([1]; safener alone 20 g/ha) | % visual injury, Ob ([1]; safener alone 40 g/ha) | % visual injury, Ob ([1]; safener alone 80 g/ha) | % visual injury, Ob ([1]; safener alone 120 g/ha) | % visual injury, Ob ([2]; safener alone 5 g/ha) | % visual injury, Ob ([2]; safener alone 10 g/ha) | % visual injury, Ob ([2]; safener alone 20 g/ha) | % visual injury, Ob ([2]; safener alone 40 g/ha) | % visual injury, Ob [3] | % visual injury, Ob ([4]; safener alone 5 g/ha) | % visual injury, Ob ([4]; safener alone 10 g/ha) | % visual injury, Ob ([4]; safener alone 20 g/ha) | % visual injury, Ob ([4]; safener alone 40 g/ha) | % visual injury, Ob ([4]; safener alone 80 g/ha) | % visual injury, Ob ([4]; safener alone 120 g/ha) | % visual injury, Ob ([5]; CQC-a 20 g/ha alone) | % visual injury, Ob ([5]; CQC-a 40 g/ha alone) | % visual injury, Ob ([5]; CQC-a 80 g/ha alone) | % visual injury, Ob ([5]; CQC-a 120 g/ha alone) | % visual injury, Ob ([6]; safener alone 5 g/ha) | % visual injury, Ob ([6]; safener alone 10 g/ha) | % visual injury, Ob ([6]; safener alone 20 g/ha) | % visual injury, Ob ([6]; safener alone 40 g/ha) | % visual injury, Ob ([7]; CQC-a 20 g/ha alone) | % visual injury, Ob ([7]; CQC-a 40 g/ha alone) | % visual injury, Ob ([7]; CQC-a 80 g/ha alone) | % visual injury, Ob ([7]; CQC-a 120 g/ha alone) | % visual injury, Ob ([8]; safener alone 5 g/ha) | % visual injury, Ob ([8]; safener alone 10 g/ha) | % visual injury, Ob ([8]; safener alone 20 g/ha) | % visual injury Δ ([8]; safener alone 40 g/ha) | % visual injury, Ob ([8]; safener alone 40 g/ha) | % visual injury, Ob ([8]; safener alone 80 g/ha) | % visual injury, Ob ([8]; safener alone 120 g/ha) | % visual injury, Ob ([9]; safener alone 10 g/ha) | % visual injury, Ob ([9]; safener alone 20 g/ha) | % visual injury, Ob ([9]; safener alone 40 g/ha) | % visual injury, Ob ([9]; safener alone 80 g/ha) | % visual injury, Ob ([10]; safener alone 10 g/ha) | % visual injury, Ob ([10]; safener alone 20 g/ha) | % visual injury, Ob ([10]; safener alone 40 g/ha) | % visual injury, Ob ([10]; safener alone 80 g/ha) | % visual injury, Ob ([11]; CQC-a 20 g/ha alone) | % visual injury, Ob ([11]; CQC-a 40 g/ha alone) | % visual injury, Ob ([11]; CQC-a 80 g/ha alone) | % visual injury, Ob ([11]; CQC-a 120 g/ha alone) | % visual injury, Ob [12] | % visual injury, Ob ([13]; CQC-a 20 g/ha alone) | % visual injury, Ob ([13]; CQC-a 40 g/ha alone) | % visual injury, Ob ([13]; CQC-a 80 g/ha alone) | % visual injury, Ob ([13]; CQC-a 120 g/ha alone) | % visual injury, Ob ([14]; safener alone 5 g/ha) | % visual injury, Ob ([14]; safener alone 10 g/ha) | % visual injury, Ob ([14]; safener alone 20 g/ha) | % visual injury, Ob ([14]; safener alone 40 g/ha) | % visual injury, Ob ([14]; safener alone 80 g/ha)

CCN(CC)CC.O=C(O)COc1ccc(Cl)c2cccnc12 [CQC-TEA, cloquintocet-triethylamine salt]
0%: % visual injury, Ob ([1]; safener alone 10 g/ha) | % visual injury, Ob ([1]; safener alone 20 g/ha) | % visual injury, Ob ([1]; safener alone 40 g/ha) | % visual injury, Ob ([2]; safener alone 10 g/ha) | % visual injury, Ob ([2]; safener alone 20 g/ha) | % visual injury, Ob ([2]; safener alone 40 g/ha) | % visual injury, Ob [3] | % visual injury, Ob ([4]; safener alone 10 g/ha) | % visual injury, Ob ([4]; safener alone 20 g/ha) | % visual injury, Ob ([4]; safener alone 40 g/ha) | % visual injury, Ob ([8]; safener alone 40 g/ha) | % visual injury, Ob ([15]; safener alone 10 g/ha) | % visual injury, Ob ([15]; safener alone 20 g/ha) | % visual injury, Ob ([15]; safener alone 40 g/ha) | % visual injury, Ob [12] | % visual injury Δ ([14]; safener alone 40 g/ha) | % visual injury, Ob ([14]; safener alone 40 g/ha) | % visual injury, Ob ([16]; safener alone 10 g/ha) | % visual injury, Ob ([16]; safener alone 20 g/ha) | % visual injury, Ob ([16]; safener alone 40 g/ha)

CNC.O=C(O)COc1ccc(Cl)c2cccnc12 [CQC-DMA, cloquintocet-dimethylammonium salt]
0%: % visual injury, Ob ([1]; safener alone 10 g/ha) | % visual injury, Ob ([1]; safener alone 20 g/ha) | % visual injury, Ob ([1]; safener alone 40 g/ha) | % visual injury, Ob ([2]; safener alone 10 g/ha) | % visual injury, Ob ([2]; safener alone 20 g/ha) | % visual injury, Ob ([2]; safener alone 40 g/ha) | % visual injury, Ob [3] | % visual injury, Ob ([4]; safener alone 10 g/ha) | % visual injury, Ob ([4]; safener alone 20 g/ha) | % visual injury, Ob ([4]; safener alone 40 g/ha) | % visual injury Δ ([8]; safener alone 40 g/ha) | % visual injury, Ob ([8]; safener alone 40 g/ha) | % visual injury, Ob ([15]; safener alone 10 g/ha) | % visual injury, Ob ([15]; safener alone 20 g/ha) | % visual injury, Ob ([15]; safener alone 40 g/ha) | % visual injury, Ob [12] | % visual injury, Ob ([14]; safener alone 40 g/ha) | % visual injury, Ob ([16]; safener alone 10 g/ha) | % visual injury, Ob ([16]; safener alone 20 g/ha) | % visual injury, Ob ([16]; safener alone 40 g/ha)
